{
  "source": "paper PMC4982639",
  "about": "“Structural Basis of Microtubule Destabilization by Potent Auristatin Anti-Mitotics” (PLoS ONE, 2016)",
  "origin": "cited, not measured here",
  "key": {"tubulin dimers": {"test_system": "tubulin dimers", "settings": "in vitro", "text": "This model of curvature between dimers is supported in vitro by the formation of curved spiral or r ..."}, "[1]": {"test_system": "cells expressing the CD30 epitope", "settings": "released in the cytosol from the internalized ADC Brentuximab vedotin", "text": "The mechanisms by which these molecules act on tubulin dimers include the induction of curved aggregates and inhibition of nucleotide exchange. MMAE comprises the four amino acids monomethylvaline (MeVal), valine (Val), dolaisoleuine (Dil) and dolaproine (Dap), and the carboxy-terminal amine norephedrine (Fig 1A). This agent provides the cytotoxic activity for the ADC Brentuximab vedotin, currently designated for relapsed Hodgkin lymphoma and anaplastic large cell lymphoma. Bren ..."}, "cellular assays": {"test_system": "cellular assays", "settings": "stated in the conclusions as background; no reference given"}, "tubulin": {"test_system": "tubulin", "settings": "compared with vinca alkaloids, free tubulin", "text": "(§1) Low resolution crystal structures of dolastatin 10 derivatives in complex with tubulin have further confirmed the region of binding for the auristatins, which overlaps w ..."}, "free tubulin": {"test_system": "free tubulin", "text": "as §1"}},
  "data": [
    {"molecule": "CC[C@]1(O)C[C@@H]2CN(CCc3c([nH]c4ccccc34)[C@@](C(=O)OC)(c3cc4c(cc3OC)N(C)[C@H]3[C@@](O)(C(=O)OC)[C@H](OC(C)=O)[C@]5(CC)C=CCN6CC[C@]43[C@@H]65)C2)C1", "note": "[vinblastine]", "values": [
      {"measurement": "formation of curved aggregates", "setting": "tubulin dimers", "value": "formation of curved spiral or ring shaped aggregates"}
    ]},
    {"molecule": "monomethyl auristatin E [MMAE]", "values": [
      {"measurement": "cellular effect of released MMAE", "setting": "[1]", "value": "mitotic arrest and apoptosis"},
      {"measurement": "potency in cellular assays", "setting": "cellular assays", "value": "nano- and picomolar potency"}
    ]},
    {"molecule": "monomethyl auristatin F [MMAF]", "values": [
      {"measurement": "potency in cellular assays", "setting": "cellular assays", "value": "nano- and picomolar potency"}
    ]},
    {"molecule": "dolastatin", "values": [
      {"measurement": "formation of curved aggregates", "setting": "tubulin dimers", "value": "formation of curved spiral or ring shaped aggregates"}
    ]},
    {"molecule": "cryptophycin", "values": [
      {"measurement": "formation of curved aggregates", "setting": "tubulin dimers", "value": "formation of curved spiral or ring shaped aggregates"}
    ]},
    {"molecule": "dolastatin 10", "values": [
      {"measurement": "inhibition of nucleotide exchange", "setting": "tubulin", "value": "much greater inhibition of nucleotide exchange"},
      {"measurement": "type of inhibition of vinca alkaloids", "setting": "free tubulin", "value": "non-competitive inhibitor of the vinca alkaloids"}
    ]}
  ]
}
